Laboratory results reported in ChEMBL document CHEMBL4507268 (2021).

How the values were obtained:
Rattus norvegicus = species: Rattus norvegicus; settings: Compound concentration 10.0 uM
[1] = target: T1, Calcium/calmodulin-dependent protein kinase type IV (Homo sapiens) (UniProt Q16566); settings: Compound concentration 1.0 uM
T1 sequence (whole entry): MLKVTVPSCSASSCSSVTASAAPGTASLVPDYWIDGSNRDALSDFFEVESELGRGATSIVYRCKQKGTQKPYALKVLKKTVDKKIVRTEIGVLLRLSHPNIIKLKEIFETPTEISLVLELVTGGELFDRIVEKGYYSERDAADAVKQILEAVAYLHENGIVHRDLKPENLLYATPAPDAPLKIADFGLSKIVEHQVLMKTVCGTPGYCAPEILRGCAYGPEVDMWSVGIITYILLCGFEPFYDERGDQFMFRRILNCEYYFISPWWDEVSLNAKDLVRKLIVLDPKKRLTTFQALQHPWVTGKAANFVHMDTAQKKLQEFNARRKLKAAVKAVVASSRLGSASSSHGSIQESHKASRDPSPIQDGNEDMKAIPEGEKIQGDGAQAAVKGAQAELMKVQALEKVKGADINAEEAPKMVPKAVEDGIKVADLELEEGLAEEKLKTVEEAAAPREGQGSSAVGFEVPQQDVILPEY

[2] = target: Ephrin type-A receptor 2 (Homo sapiens) (UniProt P29317); settings: Compound concentration 1.0 uM
Ephrin type-A receptor 2 (Homo sapiens), sequence (P29317 whole entry): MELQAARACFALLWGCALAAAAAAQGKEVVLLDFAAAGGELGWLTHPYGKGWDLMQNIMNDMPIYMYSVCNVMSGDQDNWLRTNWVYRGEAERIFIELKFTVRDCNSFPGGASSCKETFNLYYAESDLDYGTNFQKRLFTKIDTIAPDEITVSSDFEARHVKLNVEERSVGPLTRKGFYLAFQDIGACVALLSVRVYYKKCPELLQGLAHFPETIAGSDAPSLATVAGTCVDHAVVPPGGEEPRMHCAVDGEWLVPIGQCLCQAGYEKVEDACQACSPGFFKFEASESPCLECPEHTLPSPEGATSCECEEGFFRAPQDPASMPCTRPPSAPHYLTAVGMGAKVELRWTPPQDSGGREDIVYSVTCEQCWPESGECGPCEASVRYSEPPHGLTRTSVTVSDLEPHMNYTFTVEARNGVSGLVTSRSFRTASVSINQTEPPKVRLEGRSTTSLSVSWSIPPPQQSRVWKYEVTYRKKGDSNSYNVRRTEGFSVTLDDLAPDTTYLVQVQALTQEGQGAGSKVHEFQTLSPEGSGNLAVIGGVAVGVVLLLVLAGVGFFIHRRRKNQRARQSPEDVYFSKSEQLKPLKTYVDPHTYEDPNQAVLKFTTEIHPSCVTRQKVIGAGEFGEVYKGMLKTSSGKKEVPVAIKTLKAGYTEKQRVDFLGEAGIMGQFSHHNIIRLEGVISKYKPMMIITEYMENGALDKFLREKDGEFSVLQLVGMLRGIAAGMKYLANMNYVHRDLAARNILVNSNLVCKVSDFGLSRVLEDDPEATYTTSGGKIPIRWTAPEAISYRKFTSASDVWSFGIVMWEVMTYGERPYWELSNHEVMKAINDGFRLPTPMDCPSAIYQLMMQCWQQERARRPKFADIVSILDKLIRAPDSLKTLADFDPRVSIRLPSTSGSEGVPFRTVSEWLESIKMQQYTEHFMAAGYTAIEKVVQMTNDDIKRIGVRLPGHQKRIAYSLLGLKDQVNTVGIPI

[3] = target: T2, Serine/threonine-protein kinase ICK (Homo sapiens) (UniProt Q9UPZ9); settings: Compound concentration 1.0 uM
T2 sequence (whole entry): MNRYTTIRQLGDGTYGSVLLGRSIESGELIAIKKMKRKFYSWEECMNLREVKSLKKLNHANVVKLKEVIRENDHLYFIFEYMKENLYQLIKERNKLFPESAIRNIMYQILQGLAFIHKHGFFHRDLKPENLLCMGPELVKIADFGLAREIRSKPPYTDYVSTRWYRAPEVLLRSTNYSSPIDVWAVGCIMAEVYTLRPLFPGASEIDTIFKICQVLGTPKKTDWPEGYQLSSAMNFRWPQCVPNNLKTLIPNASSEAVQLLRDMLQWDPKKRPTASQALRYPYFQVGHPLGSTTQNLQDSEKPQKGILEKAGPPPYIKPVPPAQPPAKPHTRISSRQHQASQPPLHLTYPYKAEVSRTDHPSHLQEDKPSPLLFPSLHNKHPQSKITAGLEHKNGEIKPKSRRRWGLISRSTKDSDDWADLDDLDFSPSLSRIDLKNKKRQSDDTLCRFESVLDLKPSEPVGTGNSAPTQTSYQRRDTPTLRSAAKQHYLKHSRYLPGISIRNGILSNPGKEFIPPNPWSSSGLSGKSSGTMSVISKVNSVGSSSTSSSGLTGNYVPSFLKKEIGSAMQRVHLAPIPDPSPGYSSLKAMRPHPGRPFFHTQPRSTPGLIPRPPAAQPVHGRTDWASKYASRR

[4] = target: LIM domain kinase 2 (Homo sapiens) (UniProt P53671); settings: Compound concentration 1.0 uM
LIM domain kinase 2 (Homo sapiens), sequence (P53671 whole entry, looked up, the tested form may be a part): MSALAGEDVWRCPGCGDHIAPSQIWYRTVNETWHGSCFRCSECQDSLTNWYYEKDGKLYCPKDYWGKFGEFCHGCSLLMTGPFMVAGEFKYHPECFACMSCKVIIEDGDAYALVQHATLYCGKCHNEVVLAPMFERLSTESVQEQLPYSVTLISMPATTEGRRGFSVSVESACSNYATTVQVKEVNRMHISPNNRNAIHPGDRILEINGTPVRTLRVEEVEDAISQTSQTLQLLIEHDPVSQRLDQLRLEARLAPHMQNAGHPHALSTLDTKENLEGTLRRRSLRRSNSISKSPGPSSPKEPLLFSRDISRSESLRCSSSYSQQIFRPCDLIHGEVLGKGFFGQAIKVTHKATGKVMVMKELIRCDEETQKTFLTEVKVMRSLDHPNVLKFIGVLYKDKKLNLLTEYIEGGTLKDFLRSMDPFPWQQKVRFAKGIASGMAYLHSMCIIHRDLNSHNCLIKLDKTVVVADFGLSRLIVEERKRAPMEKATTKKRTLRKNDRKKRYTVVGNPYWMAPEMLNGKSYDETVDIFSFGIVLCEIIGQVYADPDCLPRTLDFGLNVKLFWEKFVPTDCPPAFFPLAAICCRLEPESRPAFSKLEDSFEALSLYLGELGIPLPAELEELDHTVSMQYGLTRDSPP

[5] = target: Dual specificity mitogen-activated protein kinase kinase 2 (Homo sapiens) (UniProt P36507); settings: Compound concentration 1.0 uM
Dual specificity mitogen-activated protein kinase kinase 2 (Homo sapiens), sequence (P36507 whole entry): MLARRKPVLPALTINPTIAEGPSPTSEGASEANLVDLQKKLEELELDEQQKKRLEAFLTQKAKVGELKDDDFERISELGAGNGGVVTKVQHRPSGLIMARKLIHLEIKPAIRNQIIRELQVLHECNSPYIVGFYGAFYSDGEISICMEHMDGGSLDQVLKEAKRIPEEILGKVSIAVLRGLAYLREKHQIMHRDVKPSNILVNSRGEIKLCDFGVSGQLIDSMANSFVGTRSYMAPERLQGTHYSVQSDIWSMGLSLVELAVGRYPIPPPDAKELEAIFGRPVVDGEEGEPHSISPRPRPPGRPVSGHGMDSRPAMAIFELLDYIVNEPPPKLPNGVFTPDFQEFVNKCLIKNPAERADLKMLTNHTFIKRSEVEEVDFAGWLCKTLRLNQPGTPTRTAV

[6] = target: T3, cGMP-dependent protein kinase 1 (Homo sapiens) (UniProt Q13976); settings: Compound concentration 1.0 uM
T3 sequence (whole entry): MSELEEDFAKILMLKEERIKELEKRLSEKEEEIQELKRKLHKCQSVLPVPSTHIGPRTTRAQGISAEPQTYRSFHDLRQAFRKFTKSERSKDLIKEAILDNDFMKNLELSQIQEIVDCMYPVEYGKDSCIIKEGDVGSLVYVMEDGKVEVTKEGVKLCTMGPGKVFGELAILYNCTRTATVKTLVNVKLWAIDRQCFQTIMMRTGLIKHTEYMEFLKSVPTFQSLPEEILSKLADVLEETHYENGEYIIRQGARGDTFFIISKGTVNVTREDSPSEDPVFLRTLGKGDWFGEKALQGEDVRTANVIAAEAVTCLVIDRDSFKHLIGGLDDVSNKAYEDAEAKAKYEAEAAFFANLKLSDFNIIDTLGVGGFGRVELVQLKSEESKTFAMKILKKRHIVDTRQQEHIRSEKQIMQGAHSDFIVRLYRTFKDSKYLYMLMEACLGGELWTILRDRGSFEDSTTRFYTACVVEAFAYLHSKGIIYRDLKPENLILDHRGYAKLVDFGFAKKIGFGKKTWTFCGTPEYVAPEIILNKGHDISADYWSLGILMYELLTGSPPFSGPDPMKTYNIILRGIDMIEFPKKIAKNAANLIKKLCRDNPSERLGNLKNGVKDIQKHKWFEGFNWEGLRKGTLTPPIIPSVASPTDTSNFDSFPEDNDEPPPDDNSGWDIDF

[7] = target: T4, Serine/threonine-protein kinase Sgk2 (Homo sapiens) (UniProt Q9HBY8); settings: Compound concentration 1.0 uM
T4 sequence (whole entry): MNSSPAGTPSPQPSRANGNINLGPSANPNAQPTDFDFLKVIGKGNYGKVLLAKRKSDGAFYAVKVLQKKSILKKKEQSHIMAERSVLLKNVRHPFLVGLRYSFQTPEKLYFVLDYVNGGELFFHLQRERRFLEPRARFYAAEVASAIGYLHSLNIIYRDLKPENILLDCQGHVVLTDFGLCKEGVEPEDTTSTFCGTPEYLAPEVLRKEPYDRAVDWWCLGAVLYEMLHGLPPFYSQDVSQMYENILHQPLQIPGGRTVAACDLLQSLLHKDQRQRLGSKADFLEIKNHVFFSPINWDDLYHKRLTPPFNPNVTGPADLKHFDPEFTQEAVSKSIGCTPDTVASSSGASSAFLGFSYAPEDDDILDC

Cc1nc(C2CCN(C(=O)c3ccc(OC(F)(F)F)cc3N)CC2)c2ncc(N3CCN(C)CC3)cc2n1 [BAY-693]
inactive: inhibition (Rattus norvegicus) -4.32%

CN1CCN(c2cnc3c(C4CCN(C(=O)c5ccc(OC(F)(F)F)cc5N)CC4)ncnc3c2)CC1 [BAY-885]
inactive: % residual kinase activity [1] 96% | % residual kinase activity [2] 100% | % residual kinase activity [3] 93% | % residual kinase activity [4] 104% | % residual kinase activity [5] 103% | % residual kinase activity [6] 122% | % residual kinase activity [7] 89%
